Experimental data taken from PubChem BioAssay AID248 (DTP/NCI, 2004).
Where “and” joins values, the source holds several entries; their conditions need not be identical. Equal entries are not always repeated. Toxic doses and inconclusive results are not listed. Rule as the data show it: active = T/C of 150% or more; inactive = T/C below 125%.

Tested on: L1210 leukemia ip in BDF1 mice, survival T/C
Assay: NCI In Vivo Anticancer Drug Screen. Data for tumor model L1210 Leukemia (intraperitoneal) in B6D2F1 (BDF1) mice
Conditions: endpoint: mean survival time, higher = longer survival
Method in brief: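 Ratio derived from survival: compound-dosed mice over vehicle-dosed mice, all bearing a transplantable tumor.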

[1] = dose: 100.0 mg/kg/injection, schedule: Q01DX001 (ip), vehicle: saline
[2] = dose: 100.0 mg/kg/injection, schedule: Q04DX003 (ip), vehicle: saline with Tween-80
[3] = dose: 200.0 mg/kg/injection, schedule: Q04DX003 (ip), vehicle: saline with Tween-80
[4] = dose: 50.0 mg/kg/injection, schedule: Q01DX009 (ip), vehicle: saline with Tween-80
[5] = dose: 100.0 mg/kg/injection, schedule: Q01DX009 (ip), vehicle: saline with Tween-80
[6] = dose: 200.0 mg/kg/injection, schedule: Q01DX009 (ip), vehicle: saline with Tween-80

Measured: T/C

O=C(CC(=O)c1ccccc1)c1ccccc1
inactive: dose: 100.0 mg/kg/injection, schedule: Q04DX002 (ip), vehicle: saline with Tween-80 97 % of control | dose: 200.0 mg/kg/injection, schedule: Q04DX002 (ip), vehicle: saline with Tween-80 102 % of control | dose: 400.0 mg/kg/injection, schedule: Q04DX002 (ip), vehicle: saline with Tween-80 94 % of control

O=C(CC(O)c1ccccc1)Nc1cccnc1 (configuration not stated)
inactive: dose: 100.0 mg/kg/injection, schedule: Q01DX001 (ip), vehicle: other 96 % of control

CC1(C(Cl)Cl)CCCCC1=O (configuration not stated)
inactive: dose: 5.0 mg/kg/injection, schedule: Q01DX001 (ip), vehicle: saline 95 % of control | dose: 10.0 mg/kg/injection, schedule: Q01DX001 (ip), vehicle: saline 96 % of control | dose: 20.0 mg/kg/injection, schedule: Q01DX001 (ip), vehicle: saline 109 % of control | dose: 40.0 mg/kg/injection, schedule: Q01DX001 (ip), vehicle: saline 100 % of control | dose: 80.0 mg/kg/injection, schedule: Q01DX001 (ip), vehicle: saline 97 % of control | [1] 104 % of control

Cc1cc(NS(=O)(=O)c2ccc(N=Nc3c(N)nc(N)[nH]c3=O)cc2)nc(C)n1
inactive: [1] 97 % of control | dose: 200.0 mg/kg/injection, schedule: Q01DX001 (ip), vehicle: saline 89 % of control | dose: 400.0 mg/kg/injection, schedule: Q01DX001 (ip), vehicle: saline 92 % of control

O=C(O)c1nc2nc(Cl)c(Cl)nc2[nH]1
inactive: dose: 50.0 mg/kg/injection, schedule: Q01DX009 (ip), vehicle: saline 98 % of control | dose: 100.0 mg/kg/injection, schedule: Q01DX009 (ip), vehicle: saline 101 % of control and 90 % of control | dose: 100.0 mg/kg/injection, schedule: Q04DX003 (ip), vehicle: saline 100 % of control | dose: 200.0 mg/kg/injection, schedule: Q01DX009 (ip), vehicle: saline 93 % of control and 96 % of control | dose: 200.0 mg/kg/injection, schedule: Q04DX003 (ip), vehicle: saline 103 % of control | dose: 300.0 mg/kg/injection, schedule: Q01DX009 (ip), vehicle: saline 102 % of control | dose: 400.0 mg/kg/injection, schedule: Q01DX009 (ip), vehicle: saline 91 % of control

[N-]=[N+]=NS(=O)(=O)CCc1ccccc1
inactive: [2] 96 % of control | [3] 110 % of control | dose: 400.0 mg/kg/injection, schedule: Q04DX003 (ip), vehicle: saline with Tween-80 98 % of control

CCCCCC(=O)N1CCCCC1C (configuration not stated)
inactive: dose: 50.0 mg/kg/injection, schedule: Q01DX001 (ip), vehicle: carboxymethylcellulose (CMC) 97 % of control | dose: 50.0 mg/kg/injection, schedule: Q01DX009 (ip), vehicle: carboxymethylcellulose (CMC) 95 % of control and 97 % of control | dose: 50.0 mg/kg/injection, schedule: Q04DX002 (ip), vehicle: carboxymethylcellulose (CMC) 96 % of control and 98 % of control | dose: 50.0 mg/kg/injection, schedule: Q04DX003 (ip), vehicle: carboxymethylcellulose (CMC) 98 % of control | dose: 100.0 mg/kg/injection, schedule: Q01DX001 (ip), vehicle: carboxymethylcellulose (CMC) 103 % of control | dose: 100.0 mg/kg/injection, schedule: Q01DX009 (ip), vehicle: carboxymethylcellulose (CMC) 96 % of control and 98 % of control | dose: 100.0 mg/kg/injection, schedule: Q04DX002 (ip), vehicle: carboxymethylcellulose (CMC) 97 % of control and 109 % of control and 92 % of control | dose: 100.0 mg/kg/injection, schedule: Q04DX003 (ip), vehicle: carboxymethylcellulose (CMC) 93 % of control | dose: 200.0 mg/kg/injection, schedule: Q01DX001 (ip), vehicle: carboxymethylcellulose (CMC) 90 % of control | dose: 200.0 mg/kg/injection, schedule: Q04DX002 (ip), vehicle: carboxymethylcellulose (CMC) 100 % of control and 86 % of control | dose: 200.0 mg/kg/injection, schedule: Q04DX003 (ip), vehicle: carboxymethylcellulose (CMC) 95 % of control

O=C(O)CC[n+]1c(/C=C/c2cc(Br)c(O)c(Br)c2)sc2ccccc21
inactive: dose: 100.0 mg/kg/injection, schedule: Q04DX003 (ip), vehicle: saline sonified 102 % of control | dose: 200.0 mg/kg/injection, schedule: Q04DX003 (ip), vehicle: saline sonified 99 % of control

C=CCC(C#N)(C(=O)OCC)/C(C)=C/C (configuration not stated)
inactive: dose: 75.0 mg/kg/injection, schedule: Q01DX001 (ip), vehicle: other 100 % of control | dose: 150.0 mg/kg/injection, schedule: Q01DX001 (ip), vehicle: other 103 % of control | dose: 300.0 mg/kg/injection, schedule: Q01DX001 (ip), vehicle: other 97 % of control

CC1(C)C2CC=C(CCOC(=O)COc3cc(Cl)c(Cl)cc3Cl)C1C2 (configuration not stated)
inactive: dose: 160.0 mg/kg/injection, schedule: Q01DX Z (ip), vehicle: other 105 % of control | dose: 240.0 mg/kg/injection, schedule: Q01DX Z (ip), vehicle: other 109 % of control | dose: 350.0 mg/kg/injection, schedule: Q01DX Z (ip), vehicle: other 88 % of control

CC(=O)CC(=O)C(F)(F)F.CC(=O)CC(=O)C(F)(F)F.[Mn]
inactive: dose: 25.0 mg/kg/injection, schedule: Q01DX009 (ip), vehicle: Klucel (hydroxypropylcellulose) (HPC) 106 % of control | dose: 50.0 mg/kg/injection, schedule: Q01DX005 (ip), vehicle: Klucel (hydroxypropylcellulose) (HPC) 97 % of control | dose: 50.0 mg/kg/injection, schedule: Q01DX009 (ip), vehicle: Klucel (hydroxypropylcellulose) (HPC) 106 % of control | dose: 100.0 mg/kg/injection, schedule: Q01DX005 (ip), vehicle: Klucel (hydroxypropylcellulose) (HPC) 93 % of control | dose: 100.0 mg/kg/injection, schedule: Q01DX009 (ip), vehicle: Klucel (hydroxypropylcellulose) (HPC) 106 % of control | dose: 100.0 mg/kg/injection, schedule: Q04DX002 (ip), vehicle: Klucel (hydroxypropylcellulose) (HPC) 104 % of control | dose: 200.0 mg/kg/injection, schedule: Q04DX002 (ip), vehicle: Klucel (hydroxypropylcellulose) (HPC) 96 % of control

CC(=O)c1cccc(NC(=S)NC(=O)/C=C/c2ccccc2)c1
inactive: [4] 92 % of control | [5] 94 % of control | [2] 100 % of control | [3] 103 % of control

Cc1cc(C)c2c(c1)NP(=S)(c1ccccc1)N2 (configuration not stated)
inactive: dose: 75.0 mg/kg/injection, schedule: Q04DX002 (ip), vehicle: gum acacia 93 % of control | dose: 150.0 mg/kg/injection, schedule: Q04DX002 (ip), vehicle: gum acacia 93 % of control | dose: 300.0 mg/kg/injection, schedule: Q04DX002 (ip), vehicle: gum acacia 93 % of control

CCOC(=O)NC(=S)n1ncnc1N
inactive: dose: 6.25 mg/kg/injection, schedule: Q01DX009 (ip), vehicle: saline with Tween-80 105 % of control | dose: 12.5 mg/kg/injection, schedule: Q01DX009 (ip), vehicle: saline with Tween-80 97 % of control | dose: 25.0 mg/kg/injection, schedule: Q01DX009 (ip), vehicle: saline with Tween-80 100 % of control | dose: 35.0 mg/kg/injection, schedule: Q01DX009 (ip), vehicle: saline with Tween-80 86 % of control

O=c1[nH]ccc2c(O)cccc12
inactive: [4] 95 % of control | dose: 50.0 mg/kg/injection, schedule: Q04DX003 (ip), vehicle: saline with Tween-80 101 % of control | [5] 97 % of control | [2] 101 % of control | [6] 90 % of control | [3] 94 % of control

COc1ccc(NC(=O)CCc2ccc(N3C(N)=NC(N)=NC3(C)C)cc2)cc1S(=O)(=O)F
inactive: dose: 50.0 mg/kg/injection, schedule: Q01DX001 (ip), vehicle: Klucel (hydroxypropylcellulose) (HPC) 95 % of control | dose: 100.0 mg/kg/injection, schedule: Q01DX001 (ip), vehicle: Klucel (hydroxypropylcellulose) (HPC) 106 % of control | dose: 200.0 mg/kg/injection, schedule: Q01DX001 (ip), vehicle: Klucel (hydroxypropylcellulose) (HPC) 98 % of control

CC1(C)C2=CCCC(O)C2(C)CCC1O (configuration not stated)
inactive: [4] 96 % of control | [5] 96 % of control | [6] 92 % of control
